Key:
human MrgprX1 = biological target: T1, human MrgprX1 (Homo sapiens, UniProt Q96LB2); experiment: MrgprX1 positive allosteric modulator (PAM) calcium FLIPR assay in HEK293 cells; assay type: cell-based; settings: PAM activity in presence of EC20 concentration of BAM8-22; HEK293 cells stably transfected with human MrgprX1
T1 construct: expressed in transfected cells
Protocol: HEK293 cells stably transfected with human MrgprX1 were plated onto poly-D-lysine-coated, black-walled, 96-well plates at a seeding density of 12,000 cells/well and grown for two days. On the day of the experiment, cells were incubated with Fluo-4 AM 2 μM, pluronic acid 0.04% and Trypan Red 1% in HBSS (pH 7.4, 100 μL) for 1 h at 37° C. For each different passage of cells, a BAM8-22 dose response was first conducted and the BAM8-22 EC20 determined. Test compounds were then dissolved and serially diluted in DMSO, further diluted with Trypan Red (1%)-containing HBSS (50 μL) and added to cells (0.33% DMSO concentration by volume) to first monitor for agonist activity. After 2.5 min, BAM8-22 at 4-fold EC20 (50 μL) was added to cells (0.25% DMSO concentration by volume) and the cells imaged on the FLIPR for an additional 2 minutes to monitor the test compounds for PAM activity. Finally, data were normalized to fluorescence signals obtained from 250 nM of BAM8-22 (maximum) and BAM8-22 at its EC20 concentration (minimum). EC50 of a test compound was defined as the concentration required to provoke a response halfway between the minimum and maximum response in the presence of EC20 concentration of BAM8-22.

T1 sequence (Q96LB2 whole entry): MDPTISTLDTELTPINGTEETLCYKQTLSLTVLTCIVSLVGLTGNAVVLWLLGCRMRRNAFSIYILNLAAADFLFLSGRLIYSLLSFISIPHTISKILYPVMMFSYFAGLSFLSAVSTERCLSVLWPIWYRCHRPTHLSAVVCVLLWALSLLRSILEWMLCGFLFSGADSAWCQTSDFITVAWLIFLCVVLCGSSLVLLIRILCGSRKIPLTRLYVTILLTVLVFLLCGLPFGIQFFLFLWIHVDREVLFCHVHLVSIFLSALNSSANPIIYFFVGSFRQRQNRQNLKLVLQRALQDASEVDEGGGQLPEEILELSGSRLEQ

SMILES | EC50 (human MrgprX1) | melting point
CC(C)(C)c1sc2ncnc(Sc3ccccc3OC(F)(F)F)c2c1-c1ccc(Cl)c(Cl)c1 [Compound 7ax, 6-tert-butyl-5-(3,4-dichlorophenyl)-4-(2-(trifluoromethoxy)phenylthio)thieno[2,3-d]pyrimidine] | 200 nM | 165 °C
CC(C)(C)c1sc2ncnc(Oc3cccnc3F)c2c1-c1ccc(Cl)c(Cl)c1 [Compound 7g, 6-tert-butyl-5-(3,4-dichlorophenyl)-4-(2-fluoropyridin-3-yloxy)thieno[2,3-d]pyrimidine] | 1000 nM | 164 °C
CC(C)(C)c1sc2ncnc(Oc3c(F)cccc3F)c2c1-c1cccc(F)c1 [Compound 7aw, 6-tert-butyl-4-(2,6-difluorophenoxy)-5-(3-fluorophenyl)thieno[2,3-d]pyrimidine] | 100 nM | 180 °C
CC(C)(C)c1sc2ncnc(OC3CCCCC3(C)C)c2c1-c1ccc(Cl)c(Cl)c1 (stereo not shown) [Compound 7ah, 6-tert-butyl-5-(3,4-dichlorophenyl)-4-(2,2-dimethylcyclohexyloxy)thieno[2,3-d]pyrimidine] | 300 nM | 128 °C
CC(C)(C)c1sc2ncnc(Oc3c(F)cccc3F)c2c1-c1ccc(F)cc1 [Compound 7at, 6-tert-butyl-4-(2,6-difluorophenoxy)-5-(4-fluorophenyl)thieno[2,3-d]pyrimidine] | 70 nM | 186 °C
CC(C)(C)c1sc2ncnc(Oc3ccccc3OCC(F)(F)F)c2c1-c1ccc(Cl)c(Cl)c1 [Compound 7s, 6-tert-butyl-5-(3,4-dichlorophenyl)-4-(2-(2,2,2-trifluoroethoxy)phenoxy)thieno[2,3-d]pyrimidine] | 1000 nM | 136 °C

Now from value to compound:

EC50 (human MrgprX1) | melting point | SMILES
100 nM | 163 °C | CC(C)(C)c1sc2ncnc(Oc3ccccc3F)c2c1-c1ccc(Cl)c(Cl)c1 [Compound 7m, 6-tert-butyl-5-(3,4-dichlorophenyl)-4-(2-fluorophenoxy)thieno[2,3-d]pyrimidine]
30 nM | 176 °C | CC(C)(C)c1sc2ncnc(Oc3c(F)cccc3F)c2c1-c1ccc(Cl)cc1 [Compound 7ap, 6-tert-butyl-5-(4-chlorophenyl)-4-(2,6-difluorophenoxy)thieno[2,3-d]pyrimidine]
> 10000 nM | 172 °C | CC(C)(C)c1sc2ncnc(OC3CC3)c2c1-c1ccc(Cl)c(Cl)c1 [Compound 7x, 6-tert-butyl-4-cyclopropoxy-5-(3,4-dichlorophenyl)thieno[2,3-d]pyrimidine]
> 10000 nM | 165 °C | CC(C)Oc1ncnc2sc(C(C)(C)C)c(-c3ccc(Cl)c(Cl)c3)c12 [Compound 7w, 6-tert-butyl-5-(3,4-dichlorophenyl)-4-isopropoxythieno[2,3-d]pyrimidine]
80 nM | 136 °C | CC(C)(C)c1sc2ncnc(Oc3ccccc3OC(F)(F)F)c2c1-c1ccc(Cl)cc1 [Compound 7an, 6-tert-butyl-5-(4-chlorophenyl)-4-(2-(trifluoromethoxy)phenoxy)thieno[2,3-d]pyrimidine]
> 100000 nM | 103 °C | CC(C)(C)c1sc2ncnc(Oc3ccc(OC(F)(F)F)cc3)c2c1-c1ccc(Cl)c(Cl)c1 [Compound 7e, 6-tert-butyl-5-(3,4-dichlorophenyl)-4-(4-(trifluoromethoxy)phenoxy)thieno[2,3-d]pyrimidine]
3000 nM | 60 °C | CC(=O)c1ccccc1Oc1ncnc2sc(C(C)(C)C)c(-c3ccc(Cl)c(Cl)c3)c12 [Compound 7u, 1-(2-(6-tert-butyl-5-(3,4-dichlorophenyl)thieno[2,3-d]pyrimidin-4-yloxy)phenyl)ethanone]
300 nM | 66 °C | CC(C)(C)c1sc2ncnc(Oc3c(Cl)cccc3OC(F)(F)F)c2c1-c1ccc(Cl)c(Cl)c1 [Compound 7c, 6-tert-butyl-4-(2-chloro-6-(trifluoromethoxy)phenoxy)-5-(3,4-dichlorophenyl)thieno[2,3-d]pyrimidine]
